Measured values as given in BigSolDB 2.1.

With CNC(=O)c1cc(Oc2ccc(NC(=O)Nc3ccc(Cl)c(C(F)(F)F)c3)cc2)ccn1.Cc1ccc(S(=O)(=O)O)cc1 as the compound, how does the solubility (mole fraction) (in isobutanol, 283.15 K) read?
The solubility (mole fraction) was 6.18e-05.

And the solubility (mole fraction) (in isobutanol, 293.15 K)?
The solubility (mole fraction) was 9.67e-05.

What about the solubility (mole fraction) (in isobutanol, 303.15 K) of the same compound?
The solubility (mole fraction) was 0.000149.

What about the solubility (mole fraction) (in isobutanol, 313.15 K) of the same compound?
The solubility (mole fraction) was 0.000216.

What about the solubility (mole fraction) (in isobutanol, 323.15 K) of the same compound?
The solubility (mole fraction) was 0.000284.

And the solubility (mole fraction) (in isobutanol, 333.15 K)?
The solubility (mole fraction) was 0.000423.

And the solubility (mole fraction) (in isopropanol, 283.15 K)?
The solubility (mole fraction) was 7.81e-05.

And the solubility (mole fraction) (in isopropanol, 293.15 K)?
Its solubility (mole fraction) is 0.000109.

What about the solubility (mole fraction) (in isopropanol, 303.15 K) of the same compound?
The solubility (mole fraction) was 0.00016.

What about the solubility (mole fraction) (in isopropanol, 313.15 K) of the same compound?
The solubility (mole fraction) was 0.000229.

What about the solubility (mole fraction) (in isopropanol, 323.15 K) of the same compound?
The solubility (mole fraction) was 0.000311.

What about the solubility (mole fraction) (in isopropanol, 333.15 K) of the same compound?
Its solubility (mole fraction) is 0.000442.

What about the solubility (mole fraction) (in n-butanol, 283.15 K) of the same compound?
The solubility (mole fraction) was 0.000132.

And the solubility (mole fraction) (in n-butanol, 293.15 K)?
Its solubility (mole fraction) is 0.000163.

What about the solubility (mole fraction) (in n-butanol, 303.15 K) of the same compound?
Its solubility (mole fraction) is 0.000238.

And the solubility (mole fraction) (in n-butanol, 313.15 K)?
The solubility (mole fraction) was 0.000316.

And the solubility (mole fraction) (in n-butanol, 323.15 K)?
Its solubility (mole fraction) is 0.000419.

What about the solubility (mole fraction) (in n-butanol, 333.15 K) of the same compound?
The solubility (mole fraction) was 0.000541.

And the solubility (mole fraction) (in n-pentanol, 283.15 K)?
The solubility (mole fraction) was 5.78e-05.

What about the solubility (mole fraction) (in n-pentanol, 293.15 K) of the same compound?
Its solubility (mole fraction) is 8.76e-05.

And the solubility (mole fraction) (in n-pentanol, 303.15 K)?
Its solubility (mole fraction) is 0.000148.

And the solubility (mole fraction) (in n-pentanol, 313.15 K)?
The solubility (mole fraction) was 0.000209.

And the solubility (mole fraction) (in n-pentanol, 323.15 K)?
The solubility (mole fraction) was 0.000272.

What about the solubility (mole fraction) (in n-pentanol, 333.15 K) of the same compound?
Its solubility (mole fraction) is 0.000394.

And the solubility (mole fraction) (in n-propanol, 283.15 K)?
The solubility (mole fraction) was 0.000139.

What about the solubility (mole fraction) (in n-propanol, 293.15 K) of the same compound?
Its solubility (mole fraction) is 0.000175.

What about the solubility (mole fraction) (in n-propanol, 303.15 K) of the same compound?
Its solubility (mole fraction) is 0.000258.

And the solubility (mole fraction) (in n-propanol, 313.15 K)?
Its solubility (mole fraction) is 0.000344.

What about the solubility (mole fraction) (in n-propanol, 323.15 K) of the same compound?
The solubility (mole fraction) was 0.000456.

What about the solubility (mole fraction) (in n-propanol, 333.15 K) of the same compound?
The solubility (mole fraction) was 0.000622.

For CNC(=O)c1cc(Oc2ccc(NC(=O)Nc3ccc(Cl)c(C(F)(F)F)c3)cc2)ccn1, which solubility (mole fraction) (in isobutanol, 283.15 K) is on record?
Its solubility (mole fraction) is 0.000253.

And the solubility (mole fraction) (in isobutanol, 293.15 K)?
The solubility (mole fraction) was 0.000379.

What about the solubility (mole fraction) (in isobutanol, 303.15 K) of the same compound?
Its solubility (mole fraction) is 0.000715.

And the solubility (mole fraction) (in isobutanol, 313.15 K)?
The solubility (mole fraction) was 0.00104.

And the solubility (mole fraction) (in isobutanol, 323.15 K)?
Its solubility (mole fraction) is 0.00155.

And the solubility (mole fraction) (in isobutanol, 333.15 K)?
Its solubility (mole fraction) is 0.00216.

What about the solubility (mole fraction) (in isopropanol, 283.15 K) of the same compound?
The solubility (mole fraction) was 0.000509.

And the solubility (mole fraction) (in isopropanol, 293.15 K)?
The solubility (mole fraction) was 0.000638.

What about the solubility (mole fraction) (in isopropanol, 303.15 K) of the same compound?
Its solubility (mole fraction) is 0.00104.

What about the solubility (mole fraction) (in isopropanol, 313.15 K) of the same compound?
The solubility (mole fraction) was 0.00152.

What about the solubility (mole fraction) (in isopropanol, 323.15 K) of the same compound?
The solubility (mole fraction) was 0.00226.

And the solubility (mole fraction) (in isopropanol, 333.15 K)?
The solubility (mole fraction) was 0.00325.

What about the solubility (mole fraction) (in n-butanol, 283.15 K) of the same compound?
The solubility (mole fraction) was 0.000645.

What about the solubility (mole fraction) (in n-butanol, 293.15 K) of the same compound?
Its solubility (mole fraction) is 0.000816.

And the solubility (mole fraction) (in n-butanol, 303.15 K)?
Its solubility (mole fraction) is 0.0013.

What about the solubility (mole fraction) (in n-butanol, 313.15 K) of the same compound?
Its solubility (mole fraction) is 0.00193.

And the solubility (mole fraction) (in n-butanol, 323.15 K)?
The solubility (mole fraction) was 0.00288.

What about the solubility (mole fraction) (in n-butanol, 333.15 K) of the same compound?
Its solubility (mole fraction) is 0.00417.

And the solubility (mole fraction) (in n-pentanol, 283.15 K)?
The solubility (mole fraction) was 0.000599.

And the solubility (mole fraction) (in n-pentanol, 293.15 K)?
The solubility (mole fraction) was 0.000819.

What about the solubility (mole fraction) (in n-pentanol, 303.15 K) of the same compound?
The solubility (mole fraction) was 0.00122.

What about the solubility (mole fraction) (in n-pentanol, 313.15 K) of the same compound?
Its solubility (mole fraction) is 0.00173.

And the solubility (mole fraction) (in n-pentanol, 323.15 K)?
The solubility (mole fraction) was 0.00256.

What about the solubility (mole fraction) (in n-pentanol, 333.15 K) of the same compound?
Its solubility (mole fraction) is 0.00377.

What about the solubility (mole fraction) (in n-propanol, 283.15 K) of the same compound?
The solubility (mole fraction) was 0.000678.

And the solubility (mole fraction) (in n-propanol, 293.15 K)?
Its solubility (mole fraction) is 0.000888.

And the solubility (mole fraction) (in n-propanol, 303.15 K)?
The solubility (mole fraction) was 0.00137.

What about the solubility (mole fraction) (in n-propanol, 313.15 K) of the same compound?
Its solubility (mole fraction) is 0.00204.

And the solubility (mole fraction) (in n-propanol, 323.15 K)?
Its solubility (mole fraction) is 0.00313.

And the solubility (mole fraction) (in n-propanol, 333.15 K)?
Its solubility (mole fraction) is 0.00456.
